Laboratory results reported in paper PMC5510229, “BCAT1 controls metabolic reprogramming in activated human macrophages and is associated with inflammatory diseases” (Nature Communications, 2017).

Test: In vivo pharmacokinetics
Set-up: species or system ICR mice
Details: ICR, mouse, plasma
Method: The experiment was performed by Eurofins Panlabs Inc. Briefly, fasting pharmacokinetic parameters were obtained after administration of 125 mg kg^−1 i.v. or 500 mg kg^−1 p.o ERG240 to ICR mice and blood collection at 3, 10, 30, 60, 120 and 240 min (i.v. dosing) or 10, 30, 60, 120, 240 and 360 min (p.o. dosing). Each animal was subjected to a single blood draw and 3 animals per time point were used. Parameters were obtained from non-compartmental analysis of the plasma data using WinNonlin. Experimental details are provided in Supplementary Methods. […]
In v ivo pharmaco kinetics
ICR mice that have been fasted overnight were administered 125 mg/kg ERG240 i.v. or 500 mg/kg ERG240 p.o. At predetermined time points, mice were sedated under general inhalant anaesthesia (3 % isoflurane) and 300- 400 µL of blood were collected in tubes coated with lithium heparin by cardiac puncture . The plasma was harvested after cent rifugation and kept frozen at - 20 °C until further processing. Proteins present in the plasma were precipitated b y acetonitrile. Specificall y, 50 µL of plasm a samples were trans ferred to a 9 6-well plate and 10 µL of a acetonitrile/water 50/50 (v/v) solution was added to each well. At this point, 150 μ L of 1 ng/μ L of aspirin in acetonitrile were also added as internal standard. After sample mixing and centrifugation, 100 µL supernatant were withdrawn from each well and mixed with […] w ater for HP LC -MS/MS analysis. Sample anal ysis b y HPLC -MS/MS employed a Agilent Poroshell 120 EC-C18 column 2.7μm (3.0 x 50mm) and a gradient elution with two mobile phases (A: acetonitrile/water/formic acid 99/1/0.02 (v/v/v);
B:acetonitrile/water/formic acid 1/99/0.02 (v/v/v)). A volume of […] of sample were injected into the column and the sample concentration was determined by employing calibration curves that were generated prior to sample anal ysis b y spiking drug- free plasma with specified concentrations of ERG240. The quantitation range was 5- 10000 ng/mL.
Following sample analysis, plots of plasma concentration of ERG240 vs. time were constructed. Fundamental pharmacokinetic parameters were calculated from the non-compartmental analysis of the plasma data using WinNonlin. […]
Pannus: 0=Normal; 1=Minimal infiltration of pannus in cartilage and subchondral bone; 2=Mild infiltration of pannus in cartilage with marginal zone destruction of hard tissue in affected joints; 3=Moderate infiltration of pannus in cartilage with moderate hard tissue destruction in affected joints; 4=Marked infiltration of pannus in cartilage with marked destruction of joint architecture, most joints; 5=Severe infiltration associated with total or near total destruction of joint architecture, all joints. Cartilage Damage: 0=Normal;

CC(=O)C(C)CCC(=O)O (stereo not drawn) [ERG240] showed an AUC(0-inf) (IV 125 mg kg^−1, mice) of 149 µg·h/mL, an AUC(0-t) (IV 125 mg kg^−1, mice) of 149 µg·h/mL and a C0 (IV 125 mg kg^−1, mice) of 231 µg/mL. The MRT (IV 125 mg kg^−1, mice) was 33 min, the clearance (IV 125 mg kg^−1, mice) was 45.6 mL/min/kg and the half-life (IV 125 mg kg^−1, mice) was 7.2 min. The AUC(0-inf) (oral 500 mg kg^−1, mice) was 794 µg·h/mL, the AUC(0-t) (oral 500 mg kg^−1, mice) was 794 µg·h/mL and the Cmax (oral 500 mg kg^−1, mice) was 351 µg/mL. The MRT (oral 500 mg kg^−1, mice) was 74.4 min, the Tmax (oral 500 mg kg^−1, mice) was 60 min and the bioavailability (oral 500 mg kg^−1, mice, read-out: F (bioavailability)) was 100%.
